In paper PMC8948939 (Pharmaceutics, 2022):
Like-named read-outs stand apart in the source and are kept apart here.

Key:
[1] = biological target: T1, CYP3A4 (Homo sapiens, UniProt P08684); design: purchased Corning Inc; details: cited from earlier work
[2] = Michaelis-Menten kinetics of voriconazole N-oxidation in human liver microsomes; type: in vitro ADME; details: human, human liver microsomes, pH 7.5
[3] = test system: human liver microsomes (HLM); experiment: as above; type: in vitro ADME; details: N-oxidation of voriconazole; HLM 0.2 mg/mL
[4] = test system: HLM; details: HLM derived from three individuals, cited from earlier work
[5] = taken from literature for IVIVE; ref 7 (supplement); cited from earlier work
[6] = biological target: T1, CYP3A4; experiment: Michaelis-Menten kinetics of voriconazole N-oxidation by rhCYP3A4
[7] = biological target: CYP2C9 (Homo sapiens, UniProt P11712); design: purchased Corning Inc; details: read-out: KM of VRC N-oxidation; cited from earlier work
[8] = test system: CYP3A4; details: mixed inhibition, cited from earlier work
[9] = Michaelis-Menten kinetics of voriconazole N-oxidation in human intestine microsomes; type: in vitro ADME; details: human, human intestine microsomes, pH 7.5
[10] = test system: human intestine microsomes (HIM); experiment: as above; type: in vitro ADME; details: N-oxidation of voriconazole; HIM 0.5 mg/mL
[11] = biological target: CYP2C19 (Homo sapiens, UniProt P33261); details: read-out: KM of VRC N-oxidation, recombinant CYP2C19, cited from earlier work
[12] = test system: CYP3A4; experiment: Contribution of CYP3A4 to voriconazole N-oxidation, extrapolation from rhCYP with ISEF; type: in vitro ADME; details: human, pH 7.5, VRC N-oxidation, read-out: extrapolated CLint,CYPi,HLM (CYP3A4)
Description: Towards the Elucidation of the Pharmacokinetics of
Josefine Schulz 1, Antonia Thomas 1, Ayatallah Saleh 1,2, Gerd Mikus 1,3, Charlotte Kloft 1,† and Robin Michelet 1,*,† 1 Department of Clinical Pharmacy & Biochemistry, Institute of Pharmacy, Freie Universitaet Berlin, Kelchstraße 31, 12169 Berlin, Germany
2 Graduate Research Training Program PharMetrX, 12169 Berlin/Potsdam, Germany 3 Department of Clinical Pharmacology and Pharmacoepidemiology, University Hospital Heidelberg, Im Neuenheimer Feld 410, 69120 Heidelberg, Germany
* Correspondence: robin.michelet@fu-berlin.de; Tel.: +49-30-838-50659
† These authors contributed equally to this work
Supplementary Section S1. Marker reactions for CYP2C19, CYP2C9 and CYP3A4 […]
for CYP3A4 [1,2] were used to determine (i) intersystem extrapolation factors (ISEF), (ii) […]
(i) Experiments for the determination of Michaelis-Menten kinetics in HLM were performed at protein concentrations of 0.02, 0.04 and 0.05 mg/mL for the marker reactions of CYP2C19, CYP2C9 and CYP3A4 (n = 3 each), respectively. Two samples were taken from each incubation after 15 and 25 min for investigations on CYP2C19, after 5 and 10 min for CYP2C9 and after 7 and 12 min for CYP3A4, respectively. […]
were applied as substrate concentrations.
For investigations in rhCYP concentrations of 2.5 pmol/mL rhCYP2C19 (n = 3), […]
respectively. […]

[13] = cited from earlier work

CYP2C9, sequence (P11712 whole entry): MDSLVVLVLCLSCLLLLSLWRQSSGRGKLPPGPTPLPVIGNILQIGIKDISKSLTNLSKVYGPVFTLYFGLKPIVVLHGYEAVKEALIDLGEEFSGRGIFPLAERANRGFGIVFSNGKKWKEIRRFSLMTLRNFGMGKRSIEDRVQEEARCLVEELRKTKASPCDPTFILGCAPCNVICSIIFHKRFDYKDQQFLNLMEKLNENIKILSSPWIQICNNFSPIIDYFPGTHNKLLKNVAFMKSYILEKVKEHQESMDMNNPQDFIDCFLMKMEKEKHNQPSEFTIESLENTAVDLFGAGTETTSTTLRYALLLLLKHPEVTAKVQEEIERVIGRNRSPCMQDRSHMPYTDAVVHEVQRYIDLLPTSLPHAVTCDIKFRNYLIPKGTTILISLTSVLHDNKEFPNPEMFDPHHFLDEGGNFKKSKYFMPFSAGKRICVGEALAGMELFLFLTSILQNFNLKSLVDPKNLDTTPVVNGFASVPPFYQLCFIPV
T1 sequence (P08684 whole entry): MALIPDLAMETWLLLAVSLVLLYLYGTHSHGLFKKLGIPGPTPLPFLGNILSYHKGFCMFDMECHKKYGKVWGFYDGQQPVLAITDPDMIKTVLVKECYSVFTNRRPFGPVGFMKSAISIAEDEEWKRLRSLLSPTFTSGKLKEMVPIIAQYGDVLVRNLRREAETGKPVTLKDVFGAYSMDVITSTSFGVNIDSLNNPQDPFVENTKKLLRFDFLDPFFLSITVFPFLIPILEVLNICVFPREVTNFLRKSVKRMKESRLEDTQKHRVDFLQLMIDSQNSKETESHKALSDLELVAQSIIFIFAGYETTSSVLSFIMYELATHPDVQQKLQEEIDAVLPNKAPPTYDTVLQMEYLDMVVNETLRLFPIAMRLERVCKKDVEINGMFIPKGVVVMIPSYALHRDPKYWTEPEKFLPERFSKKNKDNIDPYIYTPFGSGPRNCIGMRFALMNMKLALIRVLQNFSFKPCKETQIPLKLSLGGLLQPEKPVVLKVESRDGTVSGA

SMILES: C[C@@H](c1ncncc1F)[C@](O)(Cn1cncn1)c1ccc(F)cc1F [VRC, voriconazole]
- Km ([1]; read-out: KM of VRC N-oxidation, ref 31): 235 µM
- Km ([4]; read-out: KM of VRC N-oxidation): 8.1 µM
- Km [7]: 20 µM
- bioavailability ([13]; extensive metabolizers): 75%
